Reference: patent US6914045B2, “Glycopeptide antibiotics” (Wyeth Holdings Corporation, priority 2001, dated 2005)
Converted amounts (≈) assume the structure as drawn.

How the values were obtained:
Assay in all cases: in vitro antibacterial evaluation, MIC by broth dilution
Format in all cases: cell-based
Enterococcus sp. = conditions: broth dilution, 18 hours at 35° C.
Summary of the method: (§1)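 Inoculum 5×10^5 CFU/mL; concentrations 64 to 0.06 μg/mL; MIC defined as lowest inhibitory level. Conducted by broth dilution under NCCLS guidelines.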

Staphylococcus sp. = conditions: broth dilution, 18 hours at 35° C.; for MIC Staphylococcus aureus (GC 1131): strain GC 1131
Summary of the method: as §1

Streptococcus sp. = conditions: broth dilution, 18 hours at 35° C.
Summary of the method: as §1

Escherichia coli = conditions: 18 hours at 35° C.

- MIC Enterococcus avium (GC 4558) (Enterococcus sp.): 16 µg/mL (≈ 8.58 µM)
- MIC Enterococcus faecalis (ATCC 29212) (Enterococcus sp.): 64 µg/mL (≈ 34.3 µM)
- MIC Enterococcus faecalis (GC 2242) (Enterococcus sp.): 64 µg/mL (≈ 34.3 µM)
- MIC Enterococcus faecalis (GC 2691) (Enterococcus sp.): 16 µg/mL (≈ 8.58 µM)
- MIC Enterococcus faecalis (GC 3059) (Enterococcus sp.): 128 µg/mL (≈ 68.6 µM)
- MIC Enterococcus faecalis (GC 4552) (Enterococcus sp.): 64 µg/mL (≈ 34.3 µM)
- MIC Enterococcus faecalis (GC 4553) (Enterococcus sp.): 32 µg/mL (≈ 17.2 µM)
- MIC Enterococcus faecalis (GC 4554) (Enterococcus sp.): 64 µg/mL (≈ 34.3 µM)
- MIC Enterococcus faecalis (GC 6189) (Enterococcus sp.): 16 µg/mL (≈ 8.58 µM)
- MIC Enterococcus faecium (GC 2243) (Enterococcus sp.): 16 µg/mL (≈ 8.58 µM)
- MIC Enterococcus faecium (GC 4556) (Enterococcus sp.): 128 µg/mL (≈ 68.6 µM)
- MIC Enterococcus faecium (GC 4557) (Enterococcus sp.): 16 µg/mL (≈ 8.58 µM)
- MIC Enterococcus faecalis (ATCC 29212) (Enterococcus sp.; inoculum 5×10^5 CFU/mL, strain ATCC 29212): 64 µg/mL (≈ 34.3 µM)
- MIC Enterococcus faecalis (GC 2242) (Enterococcus sp.; inoculum 5×10^5 CFU/mL, strain GC 2242): 64 µg/mL (≈ 34.3 µM)
- MIC Enterococcus faecium (GC 2243) (Enterococcus sp.; inoculum 5×10^5 CFU/mL, strain GC 2243): 16 µg/mL (≈ 8.58 µM)
- MIC Enterococcus faecalis (GC 2691) (Enterococcus sp.; inoculum 5×10^5 CFU/mL, strain GC 2691): 16 µg/mL (≈ 8.58 µM)
- MIC Enterococcus faecalis (GC 3059) (Enterococcus sp.; inoculum 5×10^5 CFU/mL, strain GC 3059): 128 µg/mL (≈ 68.6 µM)
- MIC Enterococcus faecalis (GC 4552) (Enterococcus sp.; inoculum 5×10^5 CFU/mL, strain GC 4552): 64 µg/mL (≈ 34.3 µM)
- MIC Enterococcus faecalis (GC 4553) (Enterococcus sp.; inoculum 5×10^5 CFU/mL, strain GC 4553): 32 µg/mL (≈ 17.2 µM)
- MIC Enterococcus faecalis (GC 4554) (Enterococcus sp.; inoculum 5×10^5 CFU/mL, strain GC 4554): 64 µg/mL (≈ 34.3 µM)
- MIC Enterococcus faecium (GC 4556) (Enterococcus sp.; inoculum 5×10^5 CFU/mL, strain GC 4556): 128 µg/mL (≈ 68.6 µM)
- MIC Enterococcus faecium (GC 4557) (Enterococcus sp.; inoculum 5×10^5 CFU/mL, strain GC 4557): 16 µg/mL (≈ 8.58 µM)
- MIC Enterococcus avium (GC 4558) (Enterococcus sp.; inoculum 5×10^5 CFU/mL, strain GC 4558): 16 µg/mL (≈ 8.58 µM)
- MIC Enterococcus faecalis (GC 6189) (Enterococcus sp.; inoculum 5×10^5 CFU/mL, strain GC 6189): 16 µg/mL (≈ 8.58 µM)
- MIC Staphylococcus aureus (GC 1131) (Staphylococcus sp.; inoculum 5×10^5 CFU/mL): 64 µg/mL (≈ 34.3 µM)
- MIC Staphylococcus aureus (ATCC 29213) (Staphylococcus sp.; strain ATCC 29213): 64 µg/mL (≈ 34.3 µM)
- MIC Staphylococcus aureus (GC 1131) (Staphylococcus sp.): 64 µg/mL (≈ 34.3 µM)
- MIC Staphylococcus aureus (GC 3051) (Staphylococcus sp.; strain GC 3051): 64 µg/mL (≈ 34.3 µM)
- MIC Staphylococcus aureus (GC 3053) (Staphylococcus sp.; strain GC 3053): 32 µg/mL (≈ 17.2 µM)
- MIC Staphylococcus aureus (GC 4541) (Staphylococcus sp.; strain GC 4541): 64 µg/mL (≈ 34.3 µM)
- MIC Staphylococcus aureus (GC 4542) (Staphylococcus sp.; strain GC 4542): 64 µg/mL (≈ 34.3 µM)
- MIC Staphylococcus aureus-SMITH (GC 4543) (Staphylococcus sp.; strain GC 4543): 64 µg/mL (≈ 34.3 µM)
- MIC Staphylococcus aureus (GC 4544) (Staphylococcus sp.; strain GC 4544): 64 µg/mL (≈ 34.3 µM)
- MIC Staphylococcus aureus (GC 4545) (Staphylococcus sp.; strain GC 4545): 64 µg/mL (≈ 34.3 µM)
- MIC Coagulase Negative Staphylococcus (GC 4547) (Staphylococcus sp.; strain GC 4547): 128 µg/mL (≈ 68.6 µM)
- MIC Coagulase Negative Staphylococcus (GC 4548) (Staphylococcus sp.; strain GC 4548): 16 µg/mL (≈ 8.58 µM)
- MIC Coagulase Negative Staphylococcus (GC 4549) (Staphylococcus sp.; strain GC 4549): 64 µg/mL (≈ 34.3 µM)
- MIC Coagulase Negative Staphylococcus (GC 4551) (Staphylococcus sp.; strain GC 4551): 32 µg/mL (≈ 17.2 µM)
- MIC Coagulase Negative Staphylococcus (GC 6257) (Staphylococcus sp.; strain GC 6257): 32 µg/mL (≈ 17.2 µM)
- MIC Streptococcus agalactiae (GC 4564) (Streptococcus sp.): <0.12 µg/mL
- MIC Streptococcus pneumoniae (ATCC 6301) (Streptococcus sp.): <0.12 µg/mL
- MIC Streptococcus pneumoniae (GC 1894) (Streptococcus sp.): <0.12 µg/mL
- MIC Streptococcus pneumoniae (GC 4565) (Streptococcus sp.): <0.12 µg/mL
- MIC Streptococcus pyogenes (GC 4563) (Streptococcus sp.): 0.5 µg/mL (≈ 0.268 µM)
- MIC Streptococcus pneumoniae (ATCC 6301) (Streptococcus sp.; inoculum 5×10^5 CFU/mL, strain ATCC 6301): <0.12 µg/mL
- MIC Streptococcus pneumoniae (GC 1894) (Streptococcus sp.; inoculum 5×10^5 CFU/mL, strain GC 1894): <0.12 µg/mL
- MIC Streptococcus pyogenes (GC 4563) (Streptococcus sp.; inoculum 5×10^5 CFU/mL, strain GC 4563): 0.5 µg/mL (≈ 0.268 µM)
- MIC Streptococcus agalactiae (GC 4564) (Streptococcus sp.; inoculum 5×10^5 CFU/mL, strain GC 4564): <0.12 µg/mL
- MIC Streptococcus pneumoniae (GC 4565) (Streptococcus sp.; inoculum 5×10^5 CFU/mL, strain GC 4565): <0.12 µg/mL
- MIC Escherichia coli (ATCC 25922) (Escherichia coli): >128 µg/mL
- MIC Escherichia coli (GC 4559) (Escherichia coli): >128 µg/mL
- MIC Escherichia coli (GC 4560) (Escherichia coli): 128 µg/mL (≈ 68.6 µM)
SMILES: CC(c1ccccc1)C1NC(=O)CNC(=O)C(CO)NC(=O)C(C(O)C2CNC(=N)N2C2OC(CO)C(O)C(O)C2O)NC(=O)C(C(O)C2CNC(=N)N2)NC(=O)C(Cc2ccc(OC3OC(CO)C(OC4OC5COC(c6ccc(C(=O)c7cc(I)c(I)c(I)c7)cc6)OC5C(O)C4O)C(O)C3O)cc2)NC1=O (centres unmarked) [Example 187]
- MIC Staphylococcus haemolyticus (GC 4546) (Staphylococcus sp.; strain GC 4546): 128 µg/mL (≈ 68.6 µM)
